# Assay results published in publication PMC9057582, “HIF inhibitor 32-134D eradicates murine hepatocellular carcinoma in combination with anti-PD1 therapy” (The Journal of Clinical Investigation, 2022).
# Columns and labels:
# [1] = test system: Hepa1-6 HCC tumors; experiment: Hepa1-6 tumor growth and eradication in syngeneic C57L mice; type: in vivo
# Procedure: To test whether 32-134D inhibits HCC growth in an immunocompetent mouse model, we injected Hepa1-6 HCC cells into the flank of syngeneic C57L mice ([54]). When tumors became palpable (treatment day 1), mice received intraperitoneal injections of 32-134D (40 mg/kg/day) versus vehicle control, or anti-PD1 antibody versus IgG2a isotype control (200 μg on days 1, 4, 7, 10, 13, and 16), or both 32-134D and anti-PD1. Tumors grew very rapidly in all mice treated with vehicle or IgG2a, necessitating euthanasia on or before day 24 (Figure 4, A and C). Tumors regressed in 5 out of 12 mice treated with anti-PD1, but 2 tumors recurred after the last antibody treatment (on day 16) for a tumor eradication rate of only 25% (Figure 4D). […] Thus, addition of 32-134D increased the percentage of mice with a complete response to anti-PD1 immune checkpoint blockade from 25% to 67% (Figure 4F).
# Figure 4 Effect of anti-PD1 and 32-134D on Hepa1-6 tumor growth in syngeneic mice. […]
# Female nude mice (NCI Athymic NCr-nu/nu) and male C57L mice were purchased from Charles River and The Jackson Laboratory, respectively. Hep3B (8 × 10^6) and Hepa1-6 (1 × 10^7) cells were resuspended in PBS and Matrigel (1:1, vol/vol) and implanted subcutaneously in 6- to 8-week-old mice, and tumor volume was calculated as V = abc × 0.52. […]
# [2] = test system: HIF target genes in Hep3B cells; experiment: RT-qPCR of endogenous HIF target gene expression in Hep3B cells; type: cell-based, human
# Description: Based on this hit, we synthesized analogs in which either halogen substitutions to the indole groups were altered or the central thiazole was replaced by imidazole, isoxazole, oxadiazole, oxazole, pyrazinone, pyridazine, pyrazine, pyrazole, pyridine, thiadiazole, triazine, or triazole. […] We focused on analyzing the effect of the bis-bromoindole thiazole 32-134D and the bis-indole thiadiazole 33-063 on endogenous HIF target gene expression in Hep3B cells. […] For comparison, we tested the effect of PT2385, which inhibited EPO, NDRG1, ANGPTL4, and VEGFA expression but had no effect on CA9, which is consistent with its HIF-2–selective mechanism of action ([44]). None of the compounds had any effect on RPL13A expression, which is neither induced by hypoxia nor regulated by HIFs (Supplemental Figure 2D).
# Human Hep3B and mouse Hepa1-6 cells were purchased from ATCC and grown in high-glucose (4.5 mg/mL) Dulbecco’s modified Eagle’s medium supplemented with 10% (vol/vol) fetal bovine serum and 1% penicillin/streptomycin at 37°C in a 5% CO2/95% air incubator (Supplemental Table 6). Human cell line identity was authenticated by analysis of short tandem repeats, and all cell lines were maintained mycoplasma free, using PCR-based assays conducted at the Johns Hopkins University Genetic Resources Core Facility (JHU GRCF). Cells were subjected to hypoxia in a controlled atmosphere chamber (PLAS Labs) with ambient gas mixture containing 1% O2 and 5% CO2.
# RNA was extracted using TRIzol Reagent. Quantitative real-time PCR was conducted using SYBR Green PCR Master Mix and reactions were run using a Bio-Rad thermal cycler. Primer sequences and reagent sources are listed in Supplemental Table 5. The mRNA expression of target genes was normalized to the expression of 18S rRNA and the fold change (FC) was calculated based on the threshold cycle (Ct) as FC = 2^–Δ(ΔCt), where ΔCt = Cttarget gene – Ct18S rRNA and Δ(ΔCt) = ΔCttreatment – ΔCtcontrol. For RNA-seq, total RNA was isolated and treated with DNase (Qiagen). The JHU GRCF High-Throughput Sequencing facility prepared libraries and performed RNA-seq. The RNA-seq data were processed and interpreted using Genialis Expressions software (https://www.genialis.com/expressions/). An automated data analysis pipeline run in the Genialis platform consisted of the following: Sequence quality checks were performed on raw and trimmed reads with FastQC. Bbduk was used to trim adapters and filter out poor quality reads. Trimmed reads were then mapped to the STAR index (ENSEMBL 100) reference genome using the STAR ([93]) aligner. Gene expression levels were quantified with featureCounts ([94]), and differential gene expression analyses were performed with DESeq2 ([95]). […] Differential expression was determined with an FDR of less than 0.05 and mRNA FC of greater than 1.5 to identify hypoxia-induced genes and genes inhibited by 32-134D. Data used in this study have been deposited in the NCBI Gene Expression Omnibus database (GEO GSE195997).
# Supplemental Figure 2. Effect of 32-134D on gene expression in Hep3B cells. (A-D) Hep3B cells were exposed to 20% O2 in the presence of vehicle (first bar; no fill) or 1% O2 in the presence of: vehicle (blue bar) or the indicated concentration of 32-134D (bars with red fill) or 33-063 (bars with green fill), or PT2385 (bars with brown fill) for 24 hours and the indicated mRNAs were quantified by reverse transcription and quantitative real-time PCR (qPCR). Data are presented as mean + SEM (n = 3). *p < 0.05 vs white; **p < 0.01 vs blue (ANOVA with Bonferroni post-test). […]
# (G-H) Analysis of HIF-1a (G) and HIF-2a (H) […]
# mRNA expression in Hep3B cells exposed to vehicle or 32-134D at 20% or 1% O2 for 24
compound,measurement,setting,value
Brc1ccc2c(-c3csc(-c4c[nH]c5c(Br)cccc45)n3)c[nH]c2c1 [Compound 32-134D],tumor growth,[1]; 40 mg/kg/day ip,inhibition of tumor growth in all mice
same,mice with tumor eradication,[1]; 12 mice per group,4 of 12
same,"hypoxia-induced ANGPTL4, VEGFA, NDRG1 and EPO mRNA expression","[2]; Hep3B cells, 1% O2, 24 hours",significantly inhibited
same,hypoxia-induced CA9 mRNA expression (activated by HIF-1 only),"[2]; Hep3B cells, 1% O2, 24 hours",significantly inhibited
same,HIF-1α or HIF-2α mRNA expression,"[2]; Hep3B, 24 hours",no effect
